Experimental findings from patent publication US20240254089A1, “MODULATORS OF MAS-RELATED G-PROTEIN RECEPTOR X4 AND RELATED PRODUCTS AND METHODS” (ESCIENT PHARMACEUTICALS, INC., priority 2020, published 2024) are described below.

What is called IC50 is the concentration needed to halve the response being measured. Read a high IC50 as lower potency.

The target of the experiment is T1, human MRGPR X4 (Homo sapiens, UniProt Q96LA9).
T1 construct: expressed in transfected cells
In words: MRGPR X4 antagonist activity, IP-One Gq HTRF assay in stably transfected HEK cells. In kind it is cell-based. In outline:
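Human MRGPR X4-expressing HEK cells, 20,000/well, were incubated with compound (10-point curve, 10 uM top, 1:3 dilutions) plus agonist (10 μM bilirubin, 20 μM deoxycholic acid or 100 μM conjugated bilirubin) in Tris/NaCl/LiCl buffer, pH 8, for 1 h at 37 °C, then 30 min at room temperature. IP-1 was read by HTRF, and IC50 was taken from the HTRF ratio.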

T1 sequence (Q96LA9 whole entry): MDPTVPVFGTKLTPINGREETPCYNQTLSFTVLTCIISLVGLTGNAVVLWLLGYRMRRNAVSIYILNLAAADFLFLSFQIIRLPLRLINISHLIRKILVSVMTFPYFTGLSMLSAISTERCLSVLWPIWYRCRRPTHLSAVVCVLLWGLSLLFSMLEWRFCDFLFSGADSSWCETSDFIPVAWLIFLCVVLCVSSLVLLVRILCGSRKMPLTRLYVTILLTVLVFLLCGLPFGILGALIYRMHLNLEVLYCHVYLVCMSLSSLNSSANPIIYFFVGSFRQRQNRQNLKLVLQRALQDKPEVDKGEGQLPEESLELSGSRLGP

Molecule `O=C(NCCc1nnc2ccccn12)c1nn(Cc2ccc(Cl)c(Cl)c2)c2ccccc12` [Compound 526] yielded an IC50 of under 100 nM.

The molecule `O=C(NCCc1nnc2ccccn12)c1nn(Cc2ccc(Cl)cc2F)c2ccccc12` [Compound 527] returned an IC50 of under 100 nM.

Molecule `Cc1ccc(Cn2nc(C(=O)NCCc3nnc4ccccn34)c3ccccc32)cc1` [Compound 528] yielded an IC50 of under 100 nM.

`O=C(NCCc1nnc2ccccn12)c1nn(Cc2ccc(Cl)cc2)c2ccc(Br)cc12` [Compound 529] returned an IC50 of under 100 nM.

`Cc1ccc2c(c1)c(C(=O)NCCc1nnc3ccccn13)nn2Cc1ccc(Cl)cc1` [Compound 530, N-(2-([1,2,4]triazolo[4,3-a]pyridin-3-yl)ethyl)-1-(4-chlorobenzyl)-5-methyl-1H-indazole-3-carboxamide]: the IC50 is under 100 nM.

Turning to `O=C(NCCc1nnc2ccccn12)c1nn(Cc2ccc(C(F)(F)F)cc2)c2ccc(F)cc12` [Compound 531], the IC50 is under 100 nM.

As for `O=C(NCCc1nnc2ccccn12)c1nn(Cc2ccc3ccccc3c2)c2ccc(F)cc12` [Compound 532, N-(2-([1,2,4]triazolo[4,3-a]pyridin-3-yl)ethyl)-5-fluoro-1-(naphthalen-2-ylmethyl)-1H-indazole-3-carboxamide], the IC50 is under 100 nM.

As for `O=C(NCCn1nnc2ccccc21)c1nn(Cc2ccc(Cl)cc2)c2ccc(F)cc12` [Compound 533], the IC50 was under 100 nM.

Molecule `Cc1[nH]c2ccc(O)cc2c1CCNC(=O)c1nn(Cc2ccc(Cl)cc2)c2ccc(F)cc12` [Compound 534] showed an IC50 of under 100 nM.

Consider `O=C(NCCc1nnc2ccccn12)c1nn(Cc2cc3c(cc2Cl)OCO3)c2ccc(F)cc12` [Compound 536], for which the IC50 was under 100 nM.

`O=C(NCCc1nnc2ccccn12)c1nn(Cc2ccc3c(c2)CCC3)c2ccc(F)cc12` [Compound 537] yielded a concentration for half-maximal inhibition (IC50) of under 100 nM.

Consider `O=C(NCCc1nnc2ccccn12)c1nn(Cc2ccc3sccc3c2)c2ccc(F)cc12` [Compound 538], for which the IC50 was under 100 nM.

As for `O=C(NCCc1nnc2ccccn12)c1nn(Cc2ccc(Cl)cc2)c2c(Cl)cccc12` [Compound 539], the IC50 was under 100 nM.

For the molecule `O=C(NCCc1nnc2ccccn12)c1nn(Cc2ccc(Cl)cc2)c2c(F)cccc12` [Compound 540], the half-maximal inhibitory concentration (IC50) was under 100 nM.

`O=C(NCCc1nnc2ccccn12)c1nn(Cc2ccc(Cl)cc2)c2c(Br)cccc12` [Compound 541] displayed an IC50 of under 100 nM.

`N#Cc1ccc2c(C(=O)NCCc3nnc4ccccn34)nn(Cc3ccc(Cl)cc3)c2c1` [Compound 542] gave an IC50 of under 100 nM.

In turn, `COc1ccc2c(c1)c(C(=O)NCCc1nnc3ccccn13)nn2Cc1ccc(Cl)cc1` [Compound 543] showed an IC50 of 100 to 500 nM.

The molecule `Cn1c(Cn2nc(C(=O)NCCc3nnc4ccccn34)c3ccccc32)nc2ccccc21` [Compound 544] returned an IC50 of 100 to 500 nM.

Molecule `O=C(NCCc1nnc2ccccn12)c1nn(Cc2cccc3c2CCC3)c2ccccc12` [Compound 545] had an IC50 of 100 to 500 nM.

Turning to `N#Cc1cccc2c1c(C(=O)NCCc1nnc3ccccn13)nn2Cc1ccc(Cl)cc1` [Compound 546], the IC50 lay within 100 to 500 nM.

`O=C(NCCc1nnc2ccccn12)c1nn(Cc2ccc(Cl)cc2)c2cccc(Cl)c12` [Compound 547] registered an IC50 of 501 to 1000 nM.

In turn, `O=C(NCCc1nnc2ccccn12)c1nn(Cc2cccc3ccsc23)c2ccccc12` [Compound 548] yielded an IC50 of 501 to 1000 nM.

On to `Cc1ccc2c(C(=O)NCCc3nnc4ccccn34)nn(Cc3ccc(Cl)cc3)c2c1` [Compound 549], for which the IC50 is 100 to 500 nM.

As for `O=C(NCCc1nnc2ccccn12)c1nn(Cc2ccc(Cl)cc2)c2cc(Br)ccc12` [Compound 550], the IC50 fell in the range of 100 to 500 nM.

In turn, `N#Cc1ccc2c(c1)c(C(=O)NCCc1nnc3ccccn13)nn2Cc1ccc(Cl)cc1` [Compound 551] showed an IC50 of under 100 nM.

`O=C(NCCc1nnc2ccccn12)c1nn(Cc2ccc(Cl)cc2)c2ccc(I)cc12` [Compound 552] came in with an IC50 of under 100 nM.

`O=C(NCCc1nnc2ccccn12)c1nn(Cc2ccc(C(F)(F)F)cc2Cl)c2ccccc12` [Compound 553] had an IC50 of under 100 nM.

`Cc1cc(Cl)ccc1Cn1nc(C(=O)NCCc2nnc3ccccn23)c2ccccc21` [Compound 554] returned an IC50 of under 100 nM.

Consider `Cc1cc(Cn2nc(C(=O)NCCc3nnc4ccccn34)c3ccccc32)ccc1Cl` [Compound 555], for which the IC50 is under 100 nM.

`O=C(NCCc1nnc2ccccn12)c1nn(Cc2ccc3cc[nH]c3c2)c2ccccc12` [Compound 556] came in with an IC50 of under 100 nM.

On to `Cc1cc(C)c2oc(Cn3nc(C(=O)NCCc4nnc5ccccn45)c4ccccc43)cc2c1` [Compound 557], for which the IC50 lay in the range of 100 to 500 nM.

On to `O=C(NCCc1nnc2ccccn12)c1nn(Cc2cc3ccccc3s2)c2ccccc12` [Compound 558], for which the IC50 was under 100 nM.

Molecule `O=C(NCCc1nnc2ccccn12)c1nn(Cc2ccc3c(c2)CCCC3)c2ccccc12` [Compound 559] registered an IC50 of under 100 nM.

`Cc1ccc2nc(CCNC(=O)c3nn(Cc4ccc(Cl)cc4)c4ccccc34)[nH]c2c1` [Compound 560] yielded an IC50 of 100 to 500 nM.

`Cc1cccc2[nH]c(CCNC(=O)c3nn(Cc4ccc(Cl)cc4)c4ccccc34)nc12` [Compound 561] gave an IC50 of under 100 nM.

For the molecule `O=C(NCCc1nnc2ccccn12)c1nn(Cc2ccc(Cl)cc2)c2cc(Cl)ccc12` [Compound 562], the IC50 is under 100 nM.

`COc1ccc2c(C(=O)NCCc3nnc4ccccn34)nn(Cc3ccc(Cl)cc3)c2c1` [Compound 563]: the IC50 is under 100 nM.

For `O=C(NCCc1nnc2ccccn12)c1nn(Cc2ccc(Cl)cc2)c2cc(C(F)(F)F)ccc12` [Compound 564], the IC50 is under 100 nM.

With `Cc1cccc2c1c(C(=O)NCCc1nnc3ccccn13)nn2Cc1ccc(Cl)cc1` [Compound 565], the IC50 was under 100 nM.

In turn, `O=C(NCCc1nnc2ccccn12)c1nn(Cc2ccc(Cl)cc2)c2cccc(Br)c12` [Compound 566] registered an IC50 of 100 to 500 nM.

Regarding `COc1ccc2nc(Cn3nc(C(=O)NCCc4nnc5ccccn45)c4ccccc43)n(C)c2c1` [Compound 567], the IC50 lay within 1000 to 2500 nM.

In the case of `Cc1ccc2nc(Cn3nc(C(=O)NCCc4nnc5ccccn45)c4ccccc43)n(C)c2c1` [Compound 568], the IC50 lay in the range of 501 to 1000 nM.

Turning to `Cc1cccc2nc(Cn3nc(C(=O)NCCc4nnc5ccccn45)c4ccccc43)n(C)c12` [Compound 569], the IC50 is 100 to 500 nM.

In the case of `Cc1ccc2c(c1)nc(Cn1nc(C(=O)NCCc3nnc4ccccn34)c3ccccc31)n2C` [Compound 570], the IC50 was over 2500 nM.

Turning to `O=C(NCCc1nnc2ccccn12)c1nn(Cc2ccc(Cl)c(Cl)c2)c2ccc(F)cc12` [Compound 571], the IC50 was under 100 nM.

Consider `O=C(NCCc1nnc2ccccn12)c1nn(Cc2ccc(Cl)cc2F)c2ccc(F)cc12` [Compound 572], for which the IC50 was under 100 nM.

Take `Cc1c(Cn2nc(C(=O)NCCc3nnc4ccccn34)c3ccccc32)oc2ccccc12` [Compound 573]: the IC50 was under 100 nM.

For the molecule `Cn1c(Cn2nc(C(=O)NCCc3nnc4ccccn34)c3ccccc32)nc2cc(F)ccc21` [Compound 574], the IC50 lay in the range of 100 to 500 nM.
